Experimental data published in US10702538B2, “Ship inhibition to induce activation of natural killer cells” (THE RESEARCH FOUNDATION FOR THE STATE UNIVERSITY OF NEW YORK, priority 2014, dated 2020).
Entries after “also recorded” stand apart in the source; their conditions may differ.

Tests used:
[1] = tested on: immunoregulatory cells (MDSC, nTreg, neutrophils); assay: Preliminary studies: immunoregulatory cells in mice after SHIP inhibitor; format: in vivo, wt C57BL/76 mice
Description: K118 was administered in water, and in wt C57BL/76 mice.

[2] = target: T1, SHIP1 (Homo sapiens, UniProt Q92835); assay: SHIP1 inhibitor activity; format: biochemical; conditions: compared with 3AC
T1 sequence (Q92835 1-1189): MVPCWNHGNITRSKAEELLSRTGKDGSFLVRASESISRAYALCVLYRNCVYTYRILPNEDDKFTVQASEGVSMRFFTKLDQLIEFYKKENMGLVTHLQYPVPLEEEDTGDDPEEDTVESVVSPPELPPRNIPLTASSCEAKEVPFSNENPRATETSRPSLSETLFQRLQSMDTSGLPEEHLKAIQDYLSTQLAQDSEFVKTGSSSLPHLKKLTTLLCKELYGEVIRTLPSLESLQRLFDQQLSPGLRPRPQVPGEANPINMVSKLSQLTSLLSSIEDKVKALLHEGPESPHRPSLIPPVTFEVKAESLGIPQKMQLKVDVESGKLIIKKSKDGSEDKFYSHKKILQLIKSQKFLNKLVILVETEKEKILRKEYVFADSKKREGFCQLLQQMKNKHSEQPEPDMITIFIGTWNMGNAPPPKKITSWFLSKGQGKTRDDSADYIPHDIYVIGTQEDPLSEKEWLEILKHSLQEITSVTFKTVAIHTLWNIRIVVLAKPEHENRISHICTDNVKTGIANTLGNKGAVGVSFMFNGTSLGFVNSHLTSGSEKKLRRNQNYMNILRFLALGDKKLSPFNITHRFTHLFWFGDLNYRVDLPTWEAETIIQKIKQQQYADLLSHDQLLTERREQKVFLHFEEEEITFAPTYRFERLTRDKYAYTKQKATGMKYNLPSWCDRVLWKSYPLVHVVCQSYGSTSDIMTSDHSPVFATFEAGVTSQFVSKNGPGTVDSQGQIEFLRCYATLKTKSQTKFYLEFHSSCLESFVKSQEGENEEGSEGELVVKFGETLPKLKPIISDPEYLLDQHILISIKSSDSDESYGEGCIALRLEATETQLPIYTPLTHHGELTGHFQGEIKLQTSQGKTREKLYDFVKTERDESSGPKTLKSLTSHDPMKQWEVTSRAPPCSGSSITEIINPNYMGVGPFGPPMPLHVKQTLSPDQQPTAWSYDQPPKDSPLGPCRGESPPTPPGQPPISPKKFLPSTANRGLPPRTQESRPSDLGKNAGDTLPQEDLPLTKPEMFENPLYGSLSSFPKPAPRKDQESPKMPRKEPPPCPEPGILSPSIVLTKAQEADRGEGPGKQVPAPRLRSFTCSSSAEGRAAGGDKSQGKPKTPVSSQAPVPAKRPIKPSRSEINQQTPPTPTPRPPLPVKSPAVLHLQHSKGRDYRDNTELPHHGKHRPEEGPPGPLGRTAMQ

[3] = Water solubility
[4] = tested on: NK cells; assay: IFNγ production assay: ex vivo stimulation of NK cells from SHIPi treated mice; format: in vivo; conditions: vs vehicle treated mice; for IFNγ production by NK cells following ex vivo stimulation with anti-NK1.1, anti-NKp46 or anti-NKG2D antibody: mice treated daily 33 mg/kg for two days, 33 mg/kg
Description: IFNγ production assay methods: Mice were treated daily with SHIPi (33 mg/kg) for two days. Mice were sacrificed by CO2 toxicity on the third day. Splenocytes were harvested and incubated for four-five hours in six well plates in the presence of Golgiplug (BD) either alone, in plates coated with either anti-NK1.1 (PK136), anti-NKp46 (2PA1.4) or anti-NKG2D (A10) antibody or in uncoated plates but with PMA ([…]) and ionomycin as a positive control. After incubation splenocytes were removed from the plates, Fc Receptors were blocked (2.4G2) and cells were stained with the Invitrogen Aqua Live/Dead cell exclusion dye. NK cells were identified by staining for either NK1.1 (PK136) or NKp46 (29A1.4) and […] (145-2C11). T cells were excluded. Cells were fixed and permeabilized (BD Cytofx/Cytoperm kit), intracellular Fc receptors were blocked (2.4G2) and stained for IFNγ (XMG1.2). Samples were run on a BD Fortessa flow cytometer and analyzed using FloJo software.

[5] = tested on: RMA-Rae1 cells; assay: In vivo rejection of GFP expressing RMA-Rae1 tumor cells, peritoneal lavage and flow cytometry; parameters: species or system C57BL/6 mice; conditions: listed as SHIPi
Description: FIG. 4A; 5×10^5 GFP expressing RMA-Rae1 cells were injected into C57BL/6 mice. Mice were treated with either SHIPi or vehicle for two days. Peritoneal lavage was performed on the third day and cells collected by lavage were analyzed by flow cytometry. Flow cytometry plots indicated GFP positive cells after removal of dead cells and non-singlets via electronic gating. FIG. 4B: Graph represents poled data from two independent experiments using at least 4 SHIPi treated mice and 4 vehicle treated mice in each experiment.
FIG. 5A: 5×10^5 GFP expressing RMA-Rae1 cells were injected into C57BL/6 once or RAG1^−/− mice. Mice were treated with either SHIPi or vehicle for two days. Peritoneal lavage was performed on the third day and cells collected by lavage were analyzed by flow cytometry. Flow cytometry plots indicated GFP positive cells after removal of dead cells and nom-singlets via electronic gating. FIG. 5B: Graph summarizes data from 5 SHIPi treated C57BL/6 mice, 5 SHIPi treated RAG1^−/− mice, 5 vehicle treated C57BL/6 mice, and 5 vehicle treated RAG1^−/− mice.
(§1) To determine if short term administration of SHIPi could have an in vivo functional effect we injected 5×10^5 RMA cells transected with the NKG2D ligand Rae1 into C57BL/6 mice. RMA is a mouse BL/6 derived T cell lymphoma cell line (raucher virus induced cell leukemia cell line); thus a rejection of a tumor graft in BL/6 mice is due to the presence of the Rae1 ligand or due to SHIPi treatment. Mice were treated with SHIPi (33 mg/kg) for two consecutive days and on the third day peritoneal lavage was performed to recover peritoneal contents. […] Finally, showing that there is a survival benefit for mice receiving short term SHIPi, C57BL/6 mice were injected with 1×10^5 RMA or RMA cells transected with the NKG2D ligand Rae1 and then were treated two consecutive days with SHIPi or with vehicle control. This was repeated each week such that mice received treatment or vehicle twice a week with five days rest in between each treatment. Treatment start days were spaced a week apart.

[6] = tested on: RMA cells transfected with the NKG2D ligand Rae1; assay: Survival of RMA-Rae1 tumor bearing mice; format: in vivo, C57BL/6 mice; conditions: 1×10^5 cells; treated two consecutive days each week; vs the other three groups
Description: (§2) FIG. 2: C57BL/6 mice received either RM A cells (3AC RMA and Veh RMA groups) or RMA cells transfected with the NKG2D ligand Rae1 (3AC Rae1 and Veh Rae1 groups) and were treated two consecutive days each week starting twelve hours after receiving the tumor. […] The Kaplan-Meyer survival curve represents two independent, pooled, experiments of RMA-Rae1 tumor bearing mice treated with either vehicle (n=10/experiment) or SHIPi (n=10/experiment) or one experiment of RMA tumor bearing mice treated with either vehicle (n=10/experiment) or SHIPi (n=10/experiment).
as §1, with “This was repeated each week such that mice received treatment or vehicle twice a week with five days rest in between each treatment. Treatment start days were spaced a week apart.” left out

[7] = tested on: RMA cells; assay: Survival of RMA tumor bearing mice; format: in vivo, C57BL/6 mice; conditions: 1×10^5 cells; treated two consecutive days each week; vs vehicle treated groups
Description: as §2
as §1, with “This was repeated each week such that mice received treatment or vehicle twice a week with five days rest in between each treatment. Treatment start days were spaced a week apart.” left out

[8] = tested on: peritoneal NK and myeloid cells; assay: Peritoneal cell populations in RMA-Rae1 tumor bearing mice (flow cytometry of lavage); format: in vivo, C57BL/6 mice; conditions: after two days of treatment, vs vehicle
Description: FIGS. 6A-6D: SHIPi treated mice have increased peritoneal myeloid and NK cells. FIGS. 6A-D: 5×10^5 GFP expressing RMA-Rae1 cells were injected into C57BL/6 mice. Mice were treated for two days with SHIPi or vehicle alone. Peritoneal lavage was performed on the third day. Cells collected by lavage were stained with anti-NK1.1, anti-CD3ε, anti-CD19, anti-CD11b and anti-GR1 antibodies and were analyzed by flow cytometry. All populations were determined after backgating on singlets and viable cells. NK cells are NK1.1^+CD3ε^−CD19^−, T cells are CD3ε^+NK1.1^−CD19^−, B cells are CD19^+NK1.1^−CD3ε^− and myeloid cells are CD11b^+GR1^+. FIG. 6B: Graph represents pooled data from two independent experiments using at least 4 SHIPi treated mice and 4 vehicle treated mice in each experiment.
To determine if short term administration of SHIPi could have an in vivo functional effect we injected 5×10^5 RMA cells transected with the NKG2D ligand Rae1 into C57BL/6 mice. RMA is a mouse BL/6 derived T cell lymphoma cell line (raucher virus induced cell leukemia cell line); thus a rejection of a tumor graft in BL/6 mice is due to the presence of the Rae1 ligand or due to SHIPi treatment. Mice were treated with SHIPi (33 mg/kg) for two consecutive days and on the third day peritoneal lavage was performed to recover peritoneal contents. […]

[9] = spleen, orally at 10 mg/kg in water

SMILES	Frequency of natural T regulatory cells (nTreg, CD4+CD25+FoxP3+) ([1]; mesenteric lymph node (mLN), orally at 10 mg/kg in water)	Neutrophil numbers ([1]; orally at 10 mg/kg in water)	Frequency of myeloid derived suppressor cells (MDSC) expressing Gr1 and Mac1 [1, 9]	Frequency of natural T regulatory cells (nTreg, CD4+CD25+FoxP3+) [1, 9]	SHIP1 inhibitor activity relative to 3AC [2]	Water solubility [3]	IFNγ production by NK cells following ex vivo stimulation with anti-NK1.1, anti-NKp46 or anti-NKG2D antibody [4]	IFNγ production by NK cells following ex vivo stimulation with anti-NK1.1, anti-NKp46 or anti-NKG2D antibody ([4]; listed as SHIPi)	IFNγ production by NK cells unstimulated or stimulated with PMA and ionomycin ([4]; mice treated two days)	Tumor burden (GFP positive RMA-Rae1 cells in peritoneal lavage) ([5]; C57BL/6 mice, 5×10^5 cells, 33 mg/kg two consecutive days, lavage on third day, vs vehicle, 33 mg/kg)	Protection against RMA-Rae1 tumor in mice lacking B and T cells ([5]; RAG1−/− mice (printed RAKG−/−), two days treatment)	Protection against RMA-Rae1 tumor after in vivo depletion of NK cells ([5]; pretreated with anti-NK1.1 antibody PK136 200 ug 24 hours before tumor injection, vs isotype control antibody)	Survival of RMA-Rae1 tumor bearing mice [6]	Survival of RMA tumor bearing mice [7]	Peritoneal myeloid cells (CD11b+GR1+) [8]	Numbers of NK cells in the peritoneal cavity ([8]; listed as SHIPi)	Neutrophil numbers ([1]; intraperitoneal injection)
C[C@@]12CCC[C@H]1[C@@H]1CC[C@H]3C[C@@H](N)CC[C@]3(C)[C@H]1CC2.Cl [K118, 3β-amino-5α-androstane hydrochloride]	Significant increases	trend for increased neutrophil numbers	significant increase	Significant increases	comparable SHIP1 inhibitor activity	water-soluble											
CC(C)CCC[C@@H](C)[C@H]1CC[C@H]2[C@@H]3CCC4C[C@H](N)CC[C@]4(C)[C@H]3CC[C@]12C (stereo partly drawn) [3AC, 3 α-aminocholestane]							significantly increased IFNγ production; also recorded: significantly increased amounts of IFNγ	significantly increased IFNγ	do not see a significant difference	significantly reduced tumor burden; also recorded: increased tumor rejection	retained protection; also recorded: not due to B or T cells	protection is significantly reduced	significantly increased survival	no significant survival difference	increased	significantly increased numbers of NK cells	increased neutrophil numbers
